Eight molecules from PubChem BioAssay (NCI) can be followed below.

Test systems include ACHN renal; SNB-19 CNS; NCI/ADR-RES ovarian; SNB-75 CNS; SF-539 CNS; NCI-H226 lung; MDA-MB-231 breast; EKVX NSCLC; NCI-H23 lung; KM12 colon.
Assay in all cases: NCI anticancer screen, dose series, 48 h

Several values for one entry are separate records, joined by “and”; a condition that tells them apart may be missing. Equal entries are not always repeated.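 Where inhibition never reached the appropriate level, the endpoint shown equals the highest concentration tested. Otherwise, values were interpolated linearly from a five-concentration, 48-hour dose response in 96-well plates. GI50: concentration for 50% inhibition of growth. TGI: total growth inhibition.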

In the case of `Cc1nc2sc(C(=O)Nc3cccc(Cl)c3)c(N)c2cc1C(O)c1ccccc1` (stereo not given), the GI50 with ACHN renal is 0.884 µM; in the test on SNB-19 CNS, 2.33 µM; in the test with NCI/ADR-RES ovarian, 0.929 µM; in the test on SNB-75 CNS it was 0.243 µM; with SF-539 CNS it was 0.546 µM; with NCI-H226 lung, 3.53 µM. For the same molecule, the GI50 is 2.52 µM in the test with MDA-MB-231 breast, 3.39 µM with EKVX NSCLC, 1.4 µM in the test with NCI-H23 lung and 0.577 µM in the test on KM12 colon. For the same molecule, the TGI with ACHN renal turned out to be 13.4 µM; in the test on SNB-19 CNS, 20.3 µM; with NCI/ADR-RES ovarian it was 13.1 µM; with SNB-75 CNS, 12.3 µM; with SF-539 CNS it was 7.25 µM; with NCI-H226 lung it was 26.6 µM. The TGI was found to be 16.9 µM in the test with MDA-MB-231 breast, 26.1 µM with EKVX NSCLC, 19.4 µM in the test on NCI-H23 lung and 24.5 µM with KM12 colon.

On to `Fc1cccc(C2ON=C(c3ccccc3)N2C23CC4CC(CC(C4)C2)C3)c1` (stereo not given), for which the TGI in the test with ACHN renal, in the test on SNB-19 CNS, in the test with NCI/ADR-RES ovarian, in the test on SNB-75 CNS, in the test on SF-539 CNS and in the test with NCI-H226 lung was above 10 µM each time. The TGI with MDA-MB-231 breast, in the test on EKVX NSCLC, in the test with NCI-H23 lung and in the test with KM12 colon was above 10 µM each time.

Regarding `Nc1nc2c(ncn2C2OC(CO)C(O)C2O)c(=O)[nH]1` (stereo not given), the GI50 with ACHN renal, with NCI/ADR-RES ovarian, in the test with SNB-75 CNS, in the test with SF-539 CNS, in the test with MDA-MB-231 breast and with EKVX NSCLC was above 100 µM each time. The GI50 in the test with KM12 colon is above 100 µM. Besides, the TGI in the test on ACHN renal is above 100 µM; with SNB-19 CNS, > 100 µM and 21.6 µM; in the test with NCI/ADR-RES ovarian, > 100 µM and 238 µM; in the test on SNB-75 CNS, > 100 µM and 38 µM; in the test with SF-539 CNS, > 100 µM and 160 µM; with NCI-H226 lung, 224 µM. Further, the TGI in the test with MDA-MB-231 breast is above 100 µM; in the test with EKVX NSCLC it was > 100 µM and 146 µM; in the test with NCI-H23 lung it was 175 µM; with KM12 colon, > 100 µM and 224 µM.

Take `COc1cc(/C=C/C(=O)/C=C/c2ccc(-n3ccnc3)cc2)ccc1O`: the GI50 was 3.27 µM in the test on ACHN renal; 4.37 µM in the test on SNB-19 CNS; 15.9 µM in the test with NCI/ADR-RES ovarian; 9.96 µM with SNB-75 CNS; 2.47 µM with SF-539 CNS; 2.31 µM in the test on NCI-H226 lung. The GI50 was 3.47 µM in the test with MDA-MB-231 breast, 13.2 µM with EKVX NSCLC, 2.07 µM with NCI-H23 lung and 2.11 µM in the test on KM12 colon. Further, the TGI with ACHN renal is 12.6 µM; in the test on SNB-19 CNS it was 47.7 µM; in the test on NCI/ADR-RES ovarian it was above 100 µM; in the test on SNB-75 CNS, above 100 µM; with SF-539 CNS it was 6.31 µM; with NCI-H226 lung it was 5.8 µM. Also, the TGI in the test on MDA-MB-231 breast stood at 13 µM; in the test on EKVX NSCLC, 42 µM; in the test with NCI-H23 lung, 5.04 µM; in the test with KM12 colon, 4.59 µM.

In the case of `CC(C)(C)OC(=O)CC(S(=O)(=O)c1ccccc1)S(=O)(=O)c1ccccc1`, the GI50 in the test on ACHN renal is 1.75 µM; in the test with SNB-19 CNS, above 100 µM; in the test with NCI/ADR-RES ovarian it was 17.4 µM; with SNB-75 CNS, 14.2 µM; in the test with SF-539 CNS it was 17.4 µM; in the test with NCI-H226 lung it was 4.84 µM. For the same molecule, the GI50 in the test with MDA-MB-231 breast is 12 µM; with EKVX NSCLC, 19.6 µM; with NCI-H23 lung, 14.6 µM. Further, the TGI was 3.19 µM with ACHN renal; above 100 µM in the test with SNB-19 CNS; 37.8 µM in the test on NCI/ADR-RES ovarian; 31.1 µM in the test on SNB-75 CNS; 33.1 µM in the test with SF-539 CNS; 22.7 µM in the test on NCI-H226 lung. Further, the results for the TGI in the test with MDA-MB-231 breast, with EKVX NSCLC and with NCI-H23 lung were 25.7 µM, 39.4 µM and 32.1 µM, respectively.

On to `O=C([CH-]C(=O)c1ccccc1)c1ccccc1.[CH2-]C.[CH2-]C.[Tl+3]`, for which the GI50 in the test on ACHN renal was 24.5 µM; in the test on SNB-19 CNS, 31.2 µM; in the test on NCI/ADR-RES ovarian it was 26.1 µM; in the test with SNB-75 CNS, 25.2 µM; with SF-539 CNS, 23.2 µM; with NCI-H226 lung it was 0.0266 µM. For the same molecule, the GI50 with MDA-MB-231 breast was above 100 µM; in the test on EKVX NSCLC, 19.7 µM; in the test on NCI-H23 lung, 32.3 µM; with KM12 colon it was 49.6 µM. In addition, the TGI with ACHN renal is 98.7 µM; in the test with SNB-19 CNS, above 100 µM; in the test with NCI/ADR-RES ovarian, above 100 µM; in the test with SNB-75 CNS, above 100 µM; in the test on SF-539 CNS it was 86 µM; with NCI-H226 lung, 2.38 µM. Moreover, the TGI is above 100 µM in the test on MDA-MB-231 breast, 80.1 µM in the test with EKVX NSCLC, above 100 µM in the test with NCI-H23 lung and above 100 µM in the test with KM12 colon.

As for `C=C(c1ccc(C(=O)NCCCn2ccnc2)cc1)c1cc2c(cc1C)C(C)(C)CCC2(C)C`, the GI50 was 2.16 µM with ACHN renal; 2.25 µM in the test with SNB-19 CNS; 0.0807 µM in the test with NCI/ADR-RES ovarian; 2.46 µM in the test with SNB-75 CNS; 0.0565 µM in the test with SF-539 CNS; 2.1 µM in the test with NCI-H226 lung. Moreover, the GI50 in the test on MDA-MB-231 breast was 1.44 µM; in the test with EKVX NSCLC, 4.84 µM; with NCI-H23 lung it was 3.69 µM; with KM12 colon, 0.37 µM. The TGI with ACHN renal is 14.1 µM; in the test with SNB-19 CNS it was above 100 µM; in the test with NCI/ADR-RES ovarian, above 36.1 µM; in the test on SNB-75 CNS, 7.82 µM; in the test on SF-539 CNS, 2.17 µM; with NCI-H226 lung, 7.94 µM. The TGI in the test on MDA-MB-231 breast is 9.78 µM; with EKVX NSCLC it was above 100 µM; in the test with NCI-H23 lung it was 66.5 µM; in the test with KM12 colon, above 50.6 µM.

With `C#CCN(CCCOc1ccc(Cl)cc1Cl)CCCSC(=O)CCCCCN1/C(=C\C=C2/CCCC(/C=C/C3=[N+](CCCCCC(=O)[O-])c4ccccc4C3(C)C)=C2Cl)C(C)(C)c2ccccc21`, the GI50 in the test with ACHN renal was 2.65 µM; in the test on SNB-19 CNS it was 1.12 µM; with NCI/ADR-RES ovarian, 20.2 µM; in the test with SNB-75 CNS, 1.3 µM; in the test with SF-539 CNS, 1.2 µM; in the test with NCI-H226 lung, 1.72 µM. The GI50 in the test with MDA-MB-231 breast is 1.94 µM; in the test with EKVX NSCLC, 2.42 µM; with NCI-H23 lung, 1.94 µM; with KM12 colon, 1.56 µM. In addition, the TGI in the test with ACHN renal worked out at 7.5 µM; with SNB-19 CNS it was 3.64 µM; in the test with NCI/ADR-RES ovarian it was 62.3 µM; with SNB-75 CNS, 3.85 µM; in the test with SF-539 CNS, 2.71 µM; in the test with NCI-H226 lung it was 4.11 µM. Moreover, the TGI in the test on MDA-MB-231 breast worked out at 4.64 µM; with EKVX NSCLC it was 12.8 µM; in the test on NCI-H23 lung, 5.09 µM; in the test on KM12 colon it was 4.46 µM.
